Measurements published in US20260144769A1, “4-PHENYLBUTYRATE RESTORED GABA UPTAKE AND REDUCED SEIZURES IN SLC6A1 VARIANT-MEDIATED DISORDERS” (Vanderbilt University, priority 2022, published 2026).

Columns and labels:
SLC6A1 gene expression = assay: RT-qPCR of SLC6A1 gene expression, mouse whole-brain tissue; format: in vivo; details: wild-type and SLC6A1^+/S295L mice; PBA for 7 days; whole-brain RNA
Source text: FIGS. 14A-B show RT-qPCR data from a cohort of nine wild-type mice (FIG. 14A) and seven SLC6A1^+/S295L mice (FIG. 14B). […] Total RNA was extracted from mouse whole-brain tissue.

GAT-1 [1] = assay: GAT-1 protein expression in brain regions of SLC6A1^+/A288V heterozygous mice; format: in vivo, mouse; details: A288V het; cerebellum; PBA 100 mg/kg, 7 days
Source text: FIGS. 8C-D show integrated density values (IDVs) for total GAT-1 from wild-type and het KI were normalized to the Na^+/K^+ ATPase or anti-glyceraldehyde-3-phosphate dehydrogenase (GAPDH) loading control (LC) in each specific brain region and plotted. N=4 from 4 pairs of mice. […] The vehicle treated in each brain region was taken as 1. N=4 from 4 pairs of mice for FIG. 8C, FIG. 8D, FIG. 8G and FIG. 8H, Values were expressed as mean±S.E.M. One way ANOVA or unpaired t test.
The working solution was stored at 4° C.
Data were expressed as mean±SEM. Proteins were quantified by Odyssey software and data were normalized to loading controls and then to the wildtype subunit protein, which was arbitrarily taken as 1 in each experiment. Fluorescence intensities from confocal microscopy experiments were determined using MetaMorph imaging software, and the measurements were carried out in ImageJ. For statistical significance, one-way or two-way analysis of variance (ANOVA) with post hoc Dunnett or Newman-Keuls test were used. In some cases, unpaired t-test or one sample t-test was performed (GraphPad Prism, La Jolla, CA), and statistical significance was taken as p<0.05.

GAT-1 [2] = assay: 3H GABA uptake, cultured cortical neurons from the knockin mice; format: cell-based, mouse; details: PBA 2 mM, 24 hr
Experimental: FIGS. 7C-D show neurons directly cultured in the 35-mm^2 dishes and GABA uptake was evaluated between day 15-17 days after culture. CI-966 (50 μM) and NNC711 (35 μM) was applied 30 min before preincubation and removed during preincubation. GAT-3 inhibitor SNAP5114 (30 μM) was applied during GABA uptake to make sure only GAT-1 activity was measured. The wildtype astrocytes (FIGS. 7A-B) or cortical neurons (FIGS. 7C-D) of either SLC6A1^+/A288V or SLC6A1^+/S295L were taken as 1. The cultures derived from each mutant mouse was compared to the culture from its own wildtype littermates. […] The wildtype data were pooled from two mouse lines. […] The graph represents the relative GABA uptake level normalized to cells of its own genotype treated with DMSO. CI-966 (50 μM) or NNC-711 (35 μM) was applied 30 min before preincubation and removed during preincubation. Two-way analysis of variance followed by Bonferroni multiple comparison test was used. Values were expressed as mean±S.E.M. In FIG. 7A and FIG. 7C, ***p<0.001 vs. wt; § § § P<0.001 S295L vs. A288V. […]
Briefly, cells were cultured in […] dishes for 3 days before the GABA uptake experiment in DMEM with 10% fetal bovine serum and 1% penicillin/streptomycin. […] Glacial acetic acid was added, and lysates were then determined on a liquid scintillator with QuantaSmart. […]

For `O=C(O)CCCc1ccccc1` [PBA, 4-phenylbutyric acid], the “SLC6A1 gene expression, treated vs. untreated mice” value (SLC6A1 gene expression) was “no significant difference”, the “GAT-1 expression vs. same brain region of vehicle treated mice taken as 1” value (GAT-1 [1]) was 1.045±0.028 and the “GABA uptake in PBA treated cells” value (GAT-1 [2]) was “upregulation”.
